# Source: US4056626A, “Pharmaceutical composition containing benzofuran derivative” (Kakenyaku Kako Co., Ltd., priority 1971, dated 1977)
# Where “and” joins values, the source holds several entries; their conditions need not be identical. Equal entries are not always repeated.
# Tested on: tachycardia in hyperthyroidism
# Assay: clinical study: tachycardia in hyperthyroidism, single administration
# Format: in vivo, patients
# Settings: Mercazol reference, 12 patients; oral 30 mg./day, 14 days; average before treatment 111.3; standard deviation 8.6; in beats/min (unit assumed)
# Experimental: A. A therapeutic effect of the present pharmaceutical composition to tachycardia in hyperthyroidism in case of its signle administration was investigated.
# To 12 patients of hyperthyroidism shown in Table VI was orally administered the active ingredient, 2-acetyl-7-(2-hydroxy-3-isopropylaminopropoxy)benzofuran hydrochloride, contained in the capsules obtained in Example 47 in a dose of 30 mg./day (3 times per day) for 14 days. The treatment evaluation was determined according to the following standard:
# For reference, a therapeutic effect of an antihyperthyroidism medicament to tachycardia in hyperthyroidism in case of its single administration was investigated.
# To 12 patients of hyperthyroidism shown in Table VII was orally administered Mercazol which has been widely employed as an antihyperthyroidism medicament in a dose of 30 mg./day for 14 days.
row,SMILES,"Pulse rate after treatment, average"
1,"Cn1cc[nH]c1=S [Mercazol, reference compound]",100.2

# Same assay, conditions: Mercazol reference, 12 patients; oral 30 mg./day, 14 days; standard deviation printed 0.6
row,SMILES,"Pulse rate difference, average"
1,"Cn1cc[nH]c1=S [Mercazol, reference compound]",12 beats/min

# Same assay, conditions: Mercazol reference; before minus after; oral 30 mg./day, 14 days; per patient; in beats/min (unit assumed)
row,SMILES,Pulse rate difference
1,"Cn1cc[nH]c1=S [Mercazol, reference compound]",20 and 22 and 10 and 14 and 12 and 4 and 0

# Same assay, conditions: Mercazol reference; oral 30 mg./day, 14 days; per patient; in beats/min (unit assumed)
row,SMILES,Pulse rate after treatment
1,"Cn1cc[nH]c1=S [Mercazol, reference compound]",90 and 110 and 100 and 108 and 116

# Tested on: not listed separately
# Assay: in vivo
# Settings: mouse, iv
row,SMILES,LD50 at 24 h
1,"CC(=O)c1cc2cccc(OCC(O)CNC(C)C)c2o1 (stereo not drawn) [Compound No. 3, 2-acetyl-7-(2-hydroxy-3-isopropylaminopropoxy)benzofuran]",100000 to 105000 µg/kg
2,"CCC(C)NCC(O)COc1cccc2cc(C(C)=O)oc12 (stereo not drawn) [Compound No. 7, 2-acetyl-7-(2-hydroxy-3-sec.-butylaminopropoxy)benzofuran]",75000 to 80000 µg/kg
3,"CCC(C)N=C(C)c1cc2c(OCC(O)CNC(C)CC)cccc2o1 (stereo not drawn) [Compound No. 10, 2-(1-sec.-butyliminoethyl)-4-(2-hydroxy-3-sec.-butylaminopropoxy)benzofuran]",60000 to 65000 µg/kg
4,"CCOC(=O)c1cc2cccc(OCC(O)CNC(C)C)c2o1 (stereo not drawn) [compound 5, 2-carbethoxy-7-(2-hydroxy-3-isopropylaminopropoxy)benzofuran]",50000 to 55000 µg/kg
5,"CC(=NC(C)C)c1cc2c(OCC(O)CNC(C)C)cccc2o1 (stereo not drawn) [Compound No. 6, 2-(1-isopropyliminoethyl)-4-(2-hydroxy-3-isopropylaminopropoxy)benzofuran]",45000 to 50000 µg/kg

# Tested on: isoproterenol antagonism concerning myocardial contractile force and heart rate in isolated guinea-pig atria
# Assay: isoproterenol antagonism in isolated guinea-pig atria
# Settings: 37° C., isoproterenol 1 × 10^-8 g./ml., 50% inhibition
# Experimental: Isolated guinea-pig atrium was mounted in a chamber containing Ringer-Lockesolution (37° C.), through which a mixed gas of 95% O2 and 5% CO2 was continuously bubbled. Isoproterenol was added to the solution at a concentration of 1 × 10^-^8 g./ml.
SMILES,Inhibition of increase in heart rate ED 50,Inhibition of increase in myocardial contractile force ED 50
"CC(=O)c1cc2cccc(OCC(O)CNC(C)C)c2o1 (stereo not drawn) [Compound No. 3, 2-acetyl-7-(2-hydroxy-3-isopropylaminopropoxy)benzofuran]",0.04 µg/mL,0.005 µg/mL
"CCC(C)NCC(O)COc1cccc2cc(C(C)=O)oc12 (stereo not drawn) [Compound No. 7, 2-acetyl-7-(2-hydroxy-3-sec.-butylaminopropoxy)benzofuran]",0.067 µg/mL,0.0048 µg/mL
"CCC(C)N=C(C)c1cc2c(OCC(O)CNC(C)CC)cccc2o1 (stereo not drawn) [Compound No. 10, 2-(1-sec.-butyliminoethyl)-4-(2-hydroxy-3-sec.-butylaminopropoxy)benzofuran]",0.04 µg/mL,0.0059 µg/mL
"CCOC(=O)c1cc2cccc(OCC(O)CNC(C)C)c2o1 (stereo not drawn) [compound 5, 2-carbethoxy-7-(2-hydroxy-3-isopropylaminopropoxy)benzofuran]",0.029 µg/mL,0.0055 µg/mL
"CC(=NC(C)C)c1cc2c(OCC(O)CNC(C)C)cccc2o1 (stereo not drawn) [Compound No. 6, 2-(1-isopropyliminoethyl)-4-(2-hydroxy-3-isopropylaminopropoxy)benzofuran]",0.014 µg/mL,0.008 µg/mL

# Same assay, conditions: activity of Propranolol is 1
SMILES,"Inhibition of increase in heart rate, relative activity","Inhibition of increase in myocardial contractile force, relative activity"
"CC(=O)c1cc2cccc(OCC(O)CNC(C)C)c2o1 (stereo not drawn) [Compound No. 3, 2-acetyl-7-(2-hydroxy-3-isopropylaminopropoxy)benzofuran]",2.5,2.0
"CCC(C)NCC(O)COc1cccc2cc(C(C)=O)oc12 (stereo not drawn) [Compound No. 7, 2-acetyl-7-(2-hydroxy-3-sec.-butylaminopropoxy)benzofuran]",1.5,2.0
"CCC(C)N=C(C)c1cc2c(OCC(O)CNC(C)CC)cccc2o1 (stereo not drawn) [Compound No. 10, 2-(1-sec.-butyliminoethyl)-4-(2-hydroxy-3-sec.-butylaminopropoxy)benzofuran]",2.5,1.7
"CCOC(=O)c1cc2cccc(OCC(O)CNC(C)C)c2o1 (stereo not drawn) [compound 5, 2-carbethoxy-7-(2-hydroxy-3-isopropylaminopropoxy)benzofuran]",3.5,1.8
"CC(=NC(C)C)c1cc2c(OCC(O)CNC(C)C)cccc2o1 (stereo not drawn) [Compound No. 6, 2-(1-isopropyliminoethyl)-4-(2-hydroxy-3-isopropylaminopropoxy)benzofuran]",7.0,1.3

# Tested on: isoproterenol antagonism concerning myocardial contractile force, heart rate and diastolic blood pressure
# Assay: isoproterenol antagonism in anesthetized dogs
# Format: in vivo
# Settings: Canis lupus familiaris, iv; anesthetized dogs, femoral vein, isoproterenol 0.3 μg./kg., 50% inhibition; read-out: Inhibition of decrease in diastolic blood pressure ED50
# Experimental: Male and female dogs weighing 9 kg. to 20 kg. were employed. The dogs were anesthetized with barbital sodium (30 mg./kg.) given intraperitoneally. The compounds to be tested and isoproterenol were administered in femoral vein through a canula.
# The maximum increase was adopted as the increase in myocardial contractile force. The increase after 1 minute from the administration of isoproterenol was adopted as the increase in heart rate. The maximum decrease was adopted as the decrease in diastolic blood pressure. Then, the compounds to be tested were administered in a dose of 0.01 to 100 μg./kg. After an interval of 2 minutes, isoproterenol was again administered in a dose of 0.3 μg./kg. After the second administration of isoproterenol, the maximum increase in myocardial contractile force, the increase after 1 minute from the administration of isoproterenol in heart rate and the maximum decrease in diastolic blood pressure were again determined.
row,SMILES,ED50
1,"CC(=O)c1cc2cccc(OCC(O)CNC(C)C)c2o1 (stereo not drawn) [Compound No. 3, 2-acetyl-7-(2-hydroxy-3-isopropylaminopropoxy)benzofuran]",0.18 µg/kg
2,"CCC(C)NCC(O)COc1cccc2cc(C(C)=O)oc12 (stereo not drawn) [Compound No. 7, 2-acetyl-7-(2-hydroxy-3-sec.-butylaminopropoxy)benzofuran]",2.35 µg/kg
3,"CCOC(=O)c1cc2cccc(OCC(O)CNC(C)C)c2o1 (stereo not drawn) [compound 5, 2-carbethoxy-7-(2-hydroxy-3-isopropylaminopropoxy)benzofuran]",1.57 µg/kg

# Same assay, conditions: Canis lupus familiaris, iv; anesthetized dogs, femoral vein, isoproterenol 0.3 μg./kg., 50% inhibition; read-out: Inhibition of increase in heart rate ED50
row,SMILES,ED50
1,"CC(=O)c1cc2cccc(OCC(O)CNC(C)C)c2o1 (stereo not drawn) [Compound No. 3, 2-acetyl-7-(2-hydroxy-3-isopropylaminopropoxy)benzofuran]",0.52 µg/kg
2,"CCC(C)NCC(O)COc1cccc2cc(C(C)=O)oc12 (stereo not drawn) [Compound No. 7, 2-acetyl-7-(2-hydroxy-3-sec.-butylaminopropoxy)benzofuran]",7.07 µg/kg
3,"CCC(C)N=C(C)c1cc2c(OCC(O)CNC(C)CC)cccc2o1 (stereo not drawn) [Compound No. 10, 2-(1-sec.-butyliminoethyl)-4-(2-hydroxy-3-sec.-butylaminopropoxy)benzofuran]",0.21 µg/kg
4,"CCOC(=O)c1cc2cccc(OCC(O)CNC(C)C)c2o1 (stereo not drawn) [compound 5, 2-carbethoxy-7-(2-hydroxy-3-isopropylaminopropoxy)benzofuran]",0.21 µg/kg
5,"CC(=NC(C)C)c1cc2c(OCC(O)CNC(C)C)cccc2o1 (stereo not drawn) [Compound No. 6, 2-(1-isopropyliminoethyl)-4-(2-hydroxy-3-isopropylaminopropoxy)benzofuran]",0.21 µg/kg

# Same assay, conditions: Canis lupus familiaris, iv; anesthetized dogs, femoral vein, isoproterenol 0.3 μg./kg., 50% inhibition; read-out: Inhibition of increase in myocardial contractile force ED50
row,SMILES,ED50
1,"CC(=O)c1cc2cccc(OCC(O)CNC(C)C)c2o1 (stereo not drawn) [Compound No. 3, 2-acetyl-7-(2-hydroxy-3-isopropylaminopropoxy)benzofuran]",3.4 µg/kg
2,"CCC(C)NCC(O)COc1cccc2cc(C(C)=O)oc12 (stereo not drawn) [Compound No. 7, 2-acetyl-7-(2-hydroxy-3-sec.-butylaminopropoxy)benzofuran]",5.59 µg/kg
3,"CCC(C)N=C(C)c1cc2c(OCC(O)CNC(C)CC)cccc2o1 (stereo not drawn) [Compound No. 10, 2-(1-sec.-butyliminoethyl)-4-(2-hydroxy-3-sec.-butylaminopropoxy)benzofuran]",3.95 µg/kg
4,"CCOC(=O)c1cc2cccc(OCC(O)CNC(C)C)c2o1 (stereo not drawn) [compound 5, 2-carbethoxy-7-(2-hydroxy-3-isopropylaminopropoxy)benzofuran]",9.5 µg/kg
5,"CC(=NC(C)C)c1cc2c(OCC(O)CNC(C)C)cccc2o1 (stereo not drawn) [Compound No. 6, 2-(1-isopropyliminoethyl)-4-(2-hydroxy-3-isopropylaminopropoxy)benzofuran]",5.93 µg/kg

# Same assay, conditions: anesthetized dogs; activity of Propranolol is 1
SMILES,"Inhibition of decrease in diastolic blood pressure, relative activity","Inhibition of increase in heart rate, relative activity","Inhibition of increase in myocardial contractile force, relative activity"
"CC(=O)c1cc2cccc(OCC(O)CNC(C)C)c2o1 (stereo not drawn) [Compound No. 3, 2-acetyl-7-(2-hydroxy-3-isopropylaminopropoxy)benzofuran]",5.3,21.0,2.8
"CCC(C)NCC(O)COc1cccc2cc(C(C)=O)oc12 (stereo not drawn) [Compound No. 7, 2-acetyl-7-(2-hydroxy-3-sec.-butylaminopropoxy)benzofuran]",0.4,1.5,1.7
"CCC(C)N=C(C)c1cc2c(OCC(O)CNC(C)CC)cccc2o1 (stereo not drawn) [Compound No. 10, 2-(1-sec.-butyliminoethyl)-4-(2-hydroxy-3-sec.-butylaminopropoxy)benzofuran]",23.5,50.0,2.4
"CCOC(=O)c1cc2cccc(OCC(O)CNC(C)C)c2o1 (stereo not drawn) [compound 5, 2-carbethoxy-7-(2-hydroxy-3-isopropylaminopropoxy)benzofuran]",0.6,50.0,1.0
"CC(=NC(C)C)c1cc2c(OCC(O)CNC(C)C)cccc2o1 (stereo not drawn) [Compound No. 6, 2-(1-isopropyliminoethyl)-4-(2-hydroxy-3-isopropylaminopropoxy)benzofuran]",30.2,50.0,1.6
